Reference: patent US5622947A, “Benzoheterocyclic compounds and vasopressin antagonist and oxytocin antagonist compositions containing a benzoheterocyclic compound” (Otsuka Pharmaceutical Co., Ltd., priority 1992, dated 1997)
Structures can show the parent of a compound that is named as a salt.

Columns and labels:
[1] = target: T1, V2 Recepter (rat kidney plasma membrane preparations) (Rattus norvegicus, UniProt Q00788); assay: V2 Recepter binding assay; conditions: [3H]-Arg-vasopressin 4×10^-10 M, 4° C., pH 8.0, rat kidney plasma membrane
T1 construct: rat kidney plasma membrane preparations; from tissue; host or cells: rat kidney plasma membranes
Summary of the method: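 Rat kidney plasma membranes incubated with [^3H]-Arg-vasopressin (4×10^-10 M) and test compound (10^-10 to 10^-5 M) for 3 h at 4 °C in 100 mM Tris-HCl pH 8.0 with 5 mM MgCl2, 1 mM EDTA, 0.1% BSA. Bound label by filtration and scintillation counting; nonspecific binding with 10^-6 M vasopressin; IC50 reported.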

[2] = target: T2, Oxytocin receptor (uterin muscle membrane preparation) (Rattus norvegicus, UniProt P70536); assay: Oxytocin receptor binding assay; conditions: [3H]-oxytocin 10^-9 M, 25°, one hour, pH 8.0, uterin muscle membrane, DES-treated
T2 construct: was homogenized, which was used as a membrane; from tissue; host or cells: uterine muscle membranes from diethylstilbestrol-treated animals
T2 sequence (P70536 1-388): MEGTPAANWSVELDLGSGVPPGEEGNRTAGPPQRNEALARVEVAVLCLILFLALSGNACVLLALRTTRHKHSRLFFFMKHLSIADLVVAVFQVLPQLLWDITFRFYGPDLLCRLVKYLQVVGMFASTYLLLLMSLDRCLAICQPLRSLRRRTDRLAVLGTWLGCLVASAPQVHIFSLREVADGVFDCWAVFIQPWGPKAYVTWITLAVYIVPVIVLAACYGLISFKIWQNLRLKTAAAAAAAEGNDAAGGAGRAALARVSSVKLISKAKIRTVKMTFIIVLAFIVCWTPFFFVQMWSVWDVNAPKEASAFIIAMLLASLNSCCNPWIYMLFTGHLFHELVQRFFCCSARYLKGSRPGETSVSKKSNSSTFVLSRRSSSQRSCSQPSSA
Summary of the method: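 Rat uterine membranes (0.2 mg; DES-primed day before) incubated 1 h at 25° with [3H]-oxytocin (10^-9 M) and compound (10^-9 to 10^-5 M) in 100 mM Tris-HCl pH 8.0, 5 mM MgCl2, 1 mM EDTA, 0.1% BSA. Filter-bound radioactivity counted; nonspecific with 5×10^-6 M oxytocin; IC50 reported.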

[3] = target: T3, V1 Recepter (rat liver plasma membrane preparations) (Rattus norvegicus, UniProt P30560); assay: V1 Recepter binding assay; conditions: [3H]-Arg-vasopressin 2×10^-10 M, 37° C., 10 minutes, pH 8.0, rat liver plasma membrane
T3 construct: rat liver plasma membrane preparations; from tissue; host or cells: rat liver plasma membranes
Summary of the method: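 Rat liver plasma membranes incubated with [3H]-Arg-vasopressin (2×10^-10 M) and compound (10^-8 to 10^-4 M) for 10 min at 37° C in Tris-HCl pH 8.0 with MgCl2, EDTA, BSA. Bound label separated by glass-fibre filtration, scintillation counted; nonspecific binding with 10^-6 M vasopressin; IC50 reported.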

T3 sequence (P30560 whole entry): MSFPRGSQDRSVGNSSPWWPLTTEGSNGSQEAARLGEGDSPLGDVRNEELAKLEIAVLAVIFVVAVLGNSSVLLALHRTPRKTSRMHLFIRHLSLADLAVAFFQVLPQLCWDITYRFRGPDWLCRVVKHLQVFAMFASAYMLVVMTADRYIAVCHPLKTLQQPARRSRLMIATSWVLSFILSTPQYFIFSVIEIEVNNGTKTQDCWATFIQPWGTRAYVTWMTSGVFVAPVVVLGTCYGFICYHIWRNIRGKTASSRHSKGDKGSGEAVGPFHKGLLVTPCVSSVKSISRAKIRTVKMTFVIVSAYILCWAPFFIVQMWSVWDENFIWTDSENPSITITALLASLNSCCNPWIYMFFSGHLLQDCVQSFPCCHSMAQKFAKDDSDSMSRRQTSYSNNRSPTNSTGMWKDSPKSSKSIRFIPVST
T1 sequence (Q00788 whole entry): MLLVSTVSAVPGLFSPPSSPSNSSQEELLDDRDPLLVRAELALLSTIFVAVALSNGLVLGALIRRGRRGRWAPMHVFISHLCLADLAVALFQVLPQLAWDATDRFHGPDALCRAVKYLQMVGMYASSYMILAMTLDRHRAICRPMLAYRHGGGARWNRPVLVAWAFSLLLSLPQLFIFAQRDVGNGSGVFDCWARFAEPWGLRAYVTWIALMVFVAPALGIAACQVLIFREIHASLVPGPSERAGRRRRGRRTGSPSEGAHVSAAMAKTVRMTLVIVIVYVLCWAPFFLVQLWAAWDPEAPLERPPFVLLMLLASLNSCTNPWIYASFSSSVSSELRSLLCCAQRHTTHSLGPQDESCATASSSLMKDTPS

SMILES | IC50 [1] [nM] | IC50 [2] [nM] | IC50 [3] [nM]
COc1cc(NC(=O)c2ccccc2Cl)ccc1C(=O)N1CCCC(OCCNC(N)=O)c2cc(Cl)ccc21 (stereo not drawn) [Example 136, 5-(2-Ureidoethoxy)-7-chloro-1-[2-methoxy-4-(2-chlorobenzoylamino)benzoyl]-2,3,4,5-tetrahydro-1H-benzoazepine] | 4.3 | 151 | 37
CCOC(=O)NCCOC1CCCN(C(=O)c2ccc(NC(=O)c3ccccc3Cl)cc2OC)c2ccc(Cl)cc21 (stereo not drawn) [Example 137, 5-(2-Ethoxycarbonylaminoethoxy)-7-chloro-1-[2-methoxy-4-(2-chlorobenzoylamino)benzoyl]-2,3,4,5-tetrahydro-1H-benzoazepine] | 5 | 451 | 17
COc1cc(NC(=O)c2ccccc2Cl)ccc1C(=O)N1CCCC(OCCNC2CC2)c2cc(Cl)ccc21 (stereo not drawn) [Example 138, 5-(2-Cyclopropylaminoethoxy)-7-chloro-1-[2-methoxy-4-(2-chlorobenzoylamino)benzoyl]-2,3,4,5-tetrahydro-1H-benzoazepine.cndot.hydrochloride] | 3 | 233 | 5
COc1cc(NC(=O)c2ccccc2Cl)ccc1C(=O)N1CCCC(OCCSc2ccncc2)c2cc(Cl)ccc21 (stereo not drawn) [Example 139, 5-[2-(4-Pyridyl)thioethoxy]-7-chloro-1-[2-methoxy-4-(2-chlorobenzoylamino)benzoyl]-2,3,4,5-tetrahydro-1H-benzoazepine] | 12 | 1000 | 120
COc1cc(NC(=O)c2ccccc2Cl)ccc1C(=O)N1CCCC(OCCSc2nccc(C)n2)c2cc(Cl)ccc21 (stereo not drawn) [Example 140] | 46 | 4290 | 280
COc1cc(NC(=O)c2ccccc2Cl)ccc1C(=O)N1CCCC(OCCSc2ncc[nH]2)c2cc(Cl)ccc21 (stereo not drawn) [Example 141, 5-[2-(2-Imidazolyl)thioethoxy]-7-chloro-1-[2-methoxy-4-(2-chlorobenzoylamino)benzoyl]-2,3,4,5-tetrahydro-1H-benzoazepine] | 7.6 | 193 | 56
COc1cc(NC(=O)c2ccccc2Cl)ccc1C(=O)N1CCCC(OCCS(=O)(=O)c2ccncc2)c2cc(Cl)ccc21 (stereo not drawn) [Example 142, 5-[2-(4-Pyridyl)sulfonylethoxy]-7-chloro-1-[2-methoxy-4-(2-chlorobenzoylamino)benzoyl]-2,3,4,5-tetrahydro-1H-benzoazepine] | 38 | 1130 | 98
COc1cc(NC(=O)c2ccccc2Cl)ccc1C(=O)N1CCCC(OCC[S+]([O-])c2ccncc2)c2cc(Cl)ccc21 (stereo not drawn) [Example 143, 5-[2-(4-Pyridyl)sulfinylethoxy]-7-chloro-1-[2-methoxy-4-(2-chlorobenzoylamino)benzoyl]-2,3,4,5-tetrahydro-1H-benzoazepine] | 22 | 200 | 13
COc1cc(NC(=O)c2ccccc2Cl)ccc1C(=O)N1CCCC(OCC[S+]([O-])c2ncc[nH]2)c2cc(Cl)ccc21 (stereo not drawn) [Example 144, 5-[2-(2-Imidazolyl)sulfinylethoxy]-7-chloro-1-[2-methoxy-4-(2-chlorobenzoylamino)benzoyl] 2,3,4,5-tetrahydro-1H-benzoazepine] | 9.9 | 354 | 55
COc1cc(NC(=O)c2ccccc2Cl)ccc1C(=O)N1CCCC(OCCS(=O)(=O)c2ncc[nH]2)c2cc(Cl)ccc21 (stereo not drawn) [Example 145, 5-[2-(2-Imidazolyl)sulfonylethoxy]-7-chloro-1-[2-methoxy-4-(2-chlorobenzoylamino)benzoyl]-2,3,4,5-tetrahydro-1H-benzoazepine] | 14 | 849 | 91
COc1cc(NC(=O)c2ccccc2Cl)ccc1C(=O)N1CCCC(CCN2CCN(S(C)(=O)=O)CC2)c2cc(Cl)ccc21 (stereo not drawn) [Example 146, 5-[2-(4-Methanesulfonyl-1-piperazinyl)ethyl]-7-chloro-1-[2-methoxy-4-(2-chlorobenzoylamino)-benzoyl]-2,3,4,5-tetrahydro-1H-benzoazepine] | 10 | 154 | 54
CCOC(=O)N1CCN(CCC2CCCN(C(=O)c3ccc(NC(=O)c4ccccc4Cl)cc3OC)c3ccc(Cl)cc32)CC1 (stereo not drawn) [Example 147, 5-[2-(4-Ethoxycarbonyl-1-piperazinyl)ethyl]-7-chloro-1-[2-methoxy-4-(2-chlorobenzoylamino)-benzoyl]-2,3,4,5-tetrahydro-1H-benzoazepine] | 14 | 504 | 39
CNC(=O)N1CCN(CCC2CCCN(C(=O)c3ccc(NC(=O)c4ccccc4Cl)cc3OC)c3ccc(Cl)cc32)CC1 (stereo not drawn) [Example 148, 5-[2-(4-Methylaminocarbonyl-1-piperazinyl)ethyl]-7-chloro-1-[2-methoxy-4-(2-chlorobenzoylamino)benzoyl]-2,3,4,5-tetrahydro-1H-benzoazepine] | 5 | 225 | 54
COc1cc(NC(=O)c2ccccc2Cl)ccc1C(=O)N1CCCC(OCCNCc2ccccc2)c2cc(Cl)ccc21 (stereo not drawn) [Example 150, 5-(2-Benzylaminoethoxy)-7-chloro-1-[2-methoxy-4-(2-chlorobenzoylamino)benzoyl]-2,3,4,5-tetrahydro-1H-benzoazepine] | 9 | 471 | 16
COc1cc(NC(=O)c2ccccc2Br)ccc1C(=O)N1CCCC(OCCNS(=O)(=O)C(F)(F)F)c2cc(Cl)ccc21 (stereo not drawn) [Example 152, 5-(2-Trifluoromethylsulfonylaminoethoxy)-7-chloro-1-[2-methoxy-4-(2-bromobenzoylamino)benzoyl]-2,3,4,5-tetrahydro-1H-benzoazepine] | 61 | 1640 | 41
CCN(CC)CCCNCCOC1CCCN(C(=O)c2ccc(NC(=O)c3ccccc3Cl)cc2OC)c2ccc(Cl)cc21 (stereo not drawn) [Example 153, 5-[2-(3-Diethylaminopropyl)aminoethoxy]-7-chloro-1-[2-methoxy-4-(2-chlorobenzoylamino)benzoyl]-2,3,4,5-tetrahydro-1H-benzoazepine] | 5 | 248 | 36
COc1cc(NC(=O)c2ccccc2Cl)ccc1C(=O)N1CCCC(CC(=O)NCCc2cccn2C)c2cc(Cl)ccc21 (stereo not drawn) [Example 154, 5-[2-(1-Methyl-2-pyrrolyl)ethyl]aminocarbonyl-methyl-7-chloro-1-[2-methoxy-4-(2-chlorobenzoylamino)benzoyl]-2,3,4,5-tetrahydro-1H-benzoazepine] | 12 | 197 | 21
COc1cc(NC(=O)c2ccccc2Cl)ccc1C(=O)N1CCCC(CC(=O)NCCC2CCCN2C)c2cc(Cl)ccc21 (stereo not drawn) [Example 155, 5-[2-(1-Methyl-2-pyrrolidinyl)ethyl]-aminocarbonylmethyl-7-chloro-1-[2-methoxy-4-(2-chlorobenzoylamino)benzoyl]-2,3,4,5-tetrahydro-1H-benzoazepine] | 1.9 | 55 | 7
COc1cc(NC(=O)c2ccccc2Cl)ccc1C(=O)N1CCCC(CC(=O)NCCN2CCCCC2)c2cc(Cl)ccc21 (stereo not drawn) [Example 156, 5-[2-(1-Piperidinyl)ethyl]aminocarbonylmethyl-7-chloro-1-[2-methoxy-4-(2-chlorobenzoylamino)benzoyl]-2,3,4,5-tetrahydro-1H-benzoazepine] | 3 | 70 | 5.5
